The source of these data is PubChem BioAssay (NCI).

The structures appear in SMILES notation.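 Each compound was tested at five concentrations against cells in 96-well plates for 48 hours. Abbreviation: GI50, concentration required for 50% inhibition of growth. TGI marks complete inhibition of growth.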 Bounds are passed on as bounds.

Some test systems named below: KM20L2 colon; XF 498 CNS; DLD-1 colon; P388 leukemia; HOP-18 NSCLC; DMS 114 small cell lung; SN12K1 renal; SNB-78 CNS; RXF-631 renal; DMS 273 small cell lung; LXFL 529 NSCLC.
Assay in all cases: NCI tumour cell line growth inhibition, 48 h

In the case of `Cc1cc([NH-])c([NH-])cc1C.[Cl][Pt+2][Cl]`, the GI50 with KM20L2 colon was 20.2 µM; in the experiment with XF 498 CNS, 19.7 µM; with DLD-1 colon, 8 µM; with P388 leukemia, 2.42 µM; in the experiment with HOP-18 NSCLC, above 82 µM; in the experiment on DMS 114 small cell lung, 8.09 µM. Besides, the GI50 with SN12K1 renal was 13.5 µM; in the experiment on SNB-78 CNS, 26.5 µM. For the same molecule, the TGI in the experiment with KM20L2 colon was above 81.9 µM; in the experiment on XF 498 CNS, 46.4 µM; with DLD-1 colon, 28.9 µM; in the experiment with P388 leukemia it was 10.2 µM; in the experiment on HOP-18 NSCLC, above 100 µM; in the experiment with DMS 114 small cell lung, 32.3 µM. Further, the figures for the TGI in the experiment with SN12K1 renal and in the experiment with SNB-78 CNS were 32 µM and above 96 µM, respectively.
Take `Cc1ccc(C)c(NC(=O)C(=O)C(C(=O)c2ccc3ccccc3c2)C2OC(=O)c3ccccc32)c1` (centres undefined): the TGI is 65.6 µM in the experiment on RXF-631 renal; 53.3 µM in the experiment on KM20L2 colon; 44 µM in the experiment with XF 498 CNS; 64.3 µM in the experiment with DLD-1 colon; above 100 µM with DMS 273 small cell lung; 26.3 µM with DMS 114 small cell lung. The figures for the TGI with LXFL 529 NSCLC and in the experiment with SNB-78 CNS were 25.1 µM and above 100 µM, respectively.
As for `COC1=NCc2ccccc2-c2ccccc21`, the TGI with XF 498 CNS, with DLD-1 colon, in the experiment on DMS 273 small cell lung, with HOP-18 NSCLC, with DMS 114 small cell lung and with SNB-78 CNS was above 100 µM in each case.
On to `CCOC(=O)C(C#N)(Cc1c[nH]c2ccccc12)NC(C)=O` (centres undefined), for which the TGI in the experiment with KM20L2 colon, in the experiment with DLD-1 colon, in the experiment with DMS 273 small cell lung, in the experiment on DMS 114 small cell lung and with LXFL 529 NSCLC was above 100 µM throughout.
On to `c1ccc(-c2csc3c4ccccc4c4ccccc4[n+]23)cc1`, for which the TGI in the experiment on KM20L2 colon came to 20.6 µM; in the experiment on XF 498 CNS, 5.46 µM; in the experiment on DLD-1 colon, 25.4 µM; in the experiment with DMS 273 small cell lung, 4.58 µM; in the experiment with HOP-18 NSCLC it was 49.6 µM; with DMS 114 small cell lung, 4.89 µM. For the same molecule, the values for the TGI with LXFL 529 NSCLC and in the experiment on SNB-78 CNS were 16.6 µM and 11.1 µM, respectively.
Regarding `Cc1c(/C=N/NC(=O)c2ccccc2O)c(=O)n(-c2ccccc2)n1C`, the TGI with KM20L2 colon, in the experiment on XF 498 CNS, in the experiment with DLD-1 colon, with DMS 273 small cell lung, in the experiment on HOP-18 NSCLC and with DMS 114 small cell lung was above 100 µM in each case. The TGI in the experiment on LXFL 529 NSCLC and in the experiment with SNB-78 CNS was above 100 µM in each case.
For `COC(=O)Cc1cc(O)c2c(c1O)C(=O)c1ccccc1C2=O`, the TGI with RXF-631 renal, with KM20L2 colon, in the experiment on DLD-1 colon, in the experiment on DMS 273 small cell lung, in the experiment with HOP-18 NSCLC and in the experiment with DMS 114 small cell lung was above 100 µM each time. Besides, the TGI in the experiment with LXFL 529 NSCLC and in the experiment on SNB-78 CNS was above 100 µM each time.
In the case of `CCCCCOc1ccc(C=Nc2ccc(CCc3ccc(N=Cc4ccc(OCCCCC)cc4)cc3)cc2)cc1`, the TGI in the experiment with KM20L2 colon, in the experiment with XF 498 CNS, in the experiment with DLD-1 colon, in the experiment on DMS 273 small cell lung, in the experiment with P388 leukemia and in the experiment with HOP-18 NSCLC was above 100 µM throughout. Besides, the TGI with DMS 114 small cell lung, in the experiment with SN12K1 renal and with SNB-78 CNS was above 100 µM throughout.
Take `CNC(C)(C)Cc1ccc(Cl)cc1`: the TGI with KM20L2 colon, in the experiment on XF 498 CNS, in the experiment on DLD-1 colon, in the experiment on DMS 114 small cell lung and in the experiment on LXFL 529 NSCLC was above 100 µM throughout.
For the molecule `N=C1C(=N)c2ccccc2-c2ccccc21.[Cl-].[Ru+2].c1ccc(-c2ccccn2)nc1.c1ccc(-c2ccccn2)nc1`, the GI50 in the experiment with KM20L2 colon, with LXFL 529 NSCLC and in the experiment on SNB-78 CNS was above 100 µM each time. The TGI with KM20L2 colon, in the experiment with LXFL 529 NSCLC and in the experiment on SNB-78 CNS was above 100 µM in each case.
